Laboratory results from the kinase profiling compilation of Christmann-Franck et al. (2016).

Assays:
Test in all cases: radiometric filter-binding kinase assay
ROCK2 (rat) = conditions: accession and sequence are those of the human protein
DYRK3 (human) = DYRK3 (human) (UniProt O43781)
PRKCZ (human) = PRKCZ (human) (UniProt Q05513)
RPS6KA5 KD1 KD2 (human) = RPS6KA5 KD1 KD2 (human) (UniProt O75582)
PAK6 (human) = PAK6 (human) (UniProt Q9NQU5)
HIPK3 (human) = HIPK3 (human) (UniProt Q9H422)
TAOK1 (human) = TAOK1 (human) (UniProt Q7L7X3)
PAK4 (human) = PAK4 (human) (UniProt O96013)
DYRK2 (human) = DYRK2 (human) (UniProt Q92630)
[1] = system: AKT1 (human), P31749 [S473D]
Sequence of AKT1 (human), P31749 [S473D] (P31749 whole entry S473D, looked up): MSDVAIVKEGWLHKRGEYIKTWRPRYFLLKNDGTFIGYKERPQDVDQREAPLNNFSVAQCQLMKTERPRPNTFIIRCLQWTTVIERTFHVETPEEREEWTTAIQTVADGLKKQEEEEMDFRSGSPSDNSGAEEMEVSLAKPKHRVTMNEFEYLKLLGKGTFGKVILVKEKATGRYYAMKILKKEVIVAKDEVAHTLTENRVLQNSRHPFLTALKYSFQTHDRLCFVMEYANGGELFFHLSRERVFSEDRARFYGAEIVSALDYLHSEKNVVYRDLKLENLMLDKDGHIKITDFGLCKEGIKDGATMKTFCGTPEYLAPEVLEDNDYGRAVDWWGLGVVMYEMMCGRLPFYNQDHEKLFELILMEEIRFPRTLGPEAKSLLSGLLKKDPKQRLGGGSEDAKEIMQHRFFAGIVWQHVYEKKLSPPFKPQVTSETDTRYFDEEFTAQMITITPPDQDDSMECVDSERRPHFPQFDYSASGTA

EPHA2 (human) = EPHA2 (human) (UniProt P29317)
LCK (mouse) = conditions: accession and sequence are those of the human protein
MST4 (human) = MST4 (human) (UniProt Q9P289)
Sequence of MST4 (human) (Q9P289 whole entry, looked up): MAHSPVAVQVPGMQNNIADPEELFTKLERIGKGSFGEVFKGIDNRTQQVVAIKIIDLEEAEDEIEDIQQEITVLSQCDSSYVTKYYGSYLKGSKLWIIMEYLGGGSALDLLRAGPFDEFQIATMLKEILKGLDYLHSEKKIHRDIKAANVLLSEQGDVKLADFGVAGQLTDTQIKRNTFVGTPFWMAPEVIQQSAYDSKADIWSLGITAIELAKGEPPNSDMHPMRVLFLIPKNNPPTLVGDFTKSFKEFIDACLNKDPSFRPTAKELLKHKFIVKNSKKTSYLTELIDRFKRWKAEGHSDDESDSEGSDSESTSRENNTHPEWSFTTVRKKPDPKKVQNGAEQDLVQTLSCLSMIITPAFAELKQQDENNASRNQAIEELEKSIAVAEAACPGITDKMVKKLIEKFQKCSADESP

MAP2K6 (human) = MAP2K6 (human) (UniProt P52564)
IKBKE (human) = IKBKE (human) (UniProt Q14164)
Sequence of IKBKE (human) (Q14164 whole entry, looked up): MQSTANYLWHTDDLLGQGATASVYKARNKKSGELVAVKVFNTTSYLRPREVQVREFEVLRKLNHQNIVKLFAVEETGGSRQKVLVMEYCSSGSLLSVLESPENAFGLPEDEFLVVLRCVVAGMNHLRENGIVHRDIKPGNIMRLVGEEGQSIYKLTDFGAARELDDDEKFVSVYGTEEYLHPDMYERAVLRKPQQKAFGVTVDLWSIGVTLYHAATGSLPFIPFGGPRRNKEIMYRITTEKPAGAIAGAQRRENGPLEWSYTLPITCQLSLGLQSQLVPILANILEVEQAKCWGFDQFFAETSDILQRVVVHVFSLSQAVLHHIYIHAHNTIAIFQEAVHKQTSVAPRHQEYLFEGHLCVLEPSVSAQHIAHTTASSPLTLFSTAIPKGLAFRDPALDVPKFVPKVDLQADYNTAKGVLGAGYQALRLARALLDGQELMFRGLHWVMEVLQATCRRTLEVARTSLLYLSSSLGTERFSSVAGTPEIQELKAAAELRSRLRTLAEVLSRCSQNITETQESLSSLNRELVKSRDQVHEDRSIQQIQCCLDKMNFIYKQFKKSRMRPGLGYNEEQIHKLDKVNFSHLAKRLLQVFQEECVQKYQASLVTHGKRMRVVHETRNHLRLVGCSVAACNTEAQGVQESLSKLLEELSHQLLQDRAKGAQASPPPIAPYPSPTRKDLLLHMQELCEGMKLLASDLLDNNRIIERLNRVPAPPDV

MAPKAPK5 (human) = MAPKAPK5 (human) (UniProt Q8IW41)
Sequence of MAPKAPK5 (human) (Q8IW41 whole entry, looked up): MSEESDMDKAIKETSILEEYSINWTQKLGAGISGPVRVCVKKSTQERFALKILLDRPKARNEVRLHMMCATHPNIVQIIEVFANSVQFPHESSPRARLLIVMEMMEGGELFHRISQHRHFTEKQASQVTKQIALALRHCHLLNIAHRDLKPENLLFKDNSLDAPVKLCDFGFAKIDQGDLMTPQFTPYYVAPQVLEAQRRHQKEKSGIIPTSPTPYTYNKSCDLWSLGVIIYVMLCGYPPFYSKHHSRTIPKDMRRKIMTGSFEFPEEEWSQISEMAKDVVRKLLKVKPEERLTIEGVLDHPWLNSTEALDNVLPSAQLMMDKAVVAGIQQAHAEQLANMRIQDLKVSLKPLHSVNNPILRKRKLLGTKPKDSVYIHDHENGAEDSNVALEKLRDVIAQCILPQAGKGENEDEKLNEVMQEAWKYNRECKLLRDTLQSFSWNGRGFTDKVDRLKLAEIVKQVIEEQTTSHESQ

MAPK14 (human) = MAPK14 (human) (UniProt Q16539)
PAK7 (human) = PAK7 (human) (UniProt Q9P286)
EEF2K (human) = EEF2K (human) (UniProt O00418)
MAPK13 (human) = MAPK13 (human) (UniProt O15264)
Sequence of MAPK13 (human) (O15264 whole entry, looked up): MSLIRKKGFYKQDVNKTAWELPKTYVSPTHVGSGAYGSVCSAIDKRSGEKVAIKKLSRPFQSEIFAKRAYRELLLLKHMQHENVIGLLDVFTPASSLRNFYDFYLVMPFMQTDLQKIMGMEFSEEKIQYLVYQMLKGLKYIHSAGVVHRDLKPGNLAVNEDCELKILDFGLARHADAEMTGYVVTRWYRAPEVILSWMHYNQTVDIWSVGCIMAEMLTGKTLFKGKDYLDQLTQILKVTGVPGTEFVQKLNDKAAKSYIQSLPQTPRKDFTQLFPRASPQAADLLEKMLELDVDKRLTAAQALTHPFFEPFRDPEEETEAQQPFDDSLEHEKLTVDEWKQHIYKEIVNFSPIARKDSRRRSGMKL

MARK3 (human) = MARK3 (human) (UniProt P27448)
HIPK2 (human) = HIPK2 (human) (UniProt Q9H2X6)
EPHB3 (human) = EPHB3 (human) (UniProt P54753)
Sequence of EPHB3 (human) (P54753 whole entry, looked up): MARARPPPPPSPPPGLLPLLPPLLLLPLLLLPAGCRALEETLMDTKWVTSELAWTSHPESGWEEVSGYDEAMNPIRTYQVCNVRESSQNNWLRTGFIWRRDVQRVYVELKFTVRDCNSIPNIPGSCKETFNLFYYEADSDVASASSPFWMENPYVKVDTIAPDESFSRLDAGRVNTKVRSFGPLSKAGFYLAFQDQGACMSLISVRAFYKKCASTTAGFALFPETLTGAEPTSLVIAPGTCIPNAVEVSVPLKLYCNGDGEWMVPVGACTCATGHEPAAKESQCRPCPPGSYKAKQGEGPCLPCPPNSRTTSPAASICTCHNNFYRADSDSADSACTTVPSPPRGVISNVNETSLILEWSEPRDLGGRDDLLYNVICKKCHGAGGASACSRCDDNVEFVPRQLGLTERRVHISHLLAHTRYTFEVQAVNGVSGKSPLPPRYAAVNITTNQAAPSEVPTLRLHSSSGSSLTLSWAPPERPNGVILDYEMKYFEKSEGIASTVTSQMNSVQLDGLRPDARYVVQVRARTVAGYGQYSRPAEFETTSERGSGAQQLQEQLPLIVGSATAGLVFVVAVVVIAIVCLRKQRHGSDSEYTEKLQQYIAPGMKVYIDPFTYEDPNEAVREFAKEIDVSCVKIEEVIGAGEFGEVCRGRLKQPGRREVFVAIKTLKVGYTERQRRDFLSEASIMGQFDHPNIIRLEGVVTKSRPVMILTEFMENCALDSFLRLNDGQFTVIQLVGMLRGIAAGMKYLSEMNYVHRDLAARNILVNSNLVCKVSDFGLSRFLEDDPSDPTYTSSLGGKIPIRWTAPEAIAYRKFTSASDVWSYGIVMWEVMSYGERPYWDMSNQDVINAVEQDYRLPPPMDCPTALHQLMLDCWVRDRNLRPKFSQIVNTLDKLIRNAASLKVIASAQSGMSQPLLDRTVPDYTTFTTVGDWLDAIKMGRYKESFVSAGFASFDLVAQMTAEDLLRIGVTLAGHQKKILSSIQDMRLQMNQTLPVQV

CSNK2A1 (human) = CSNK2A1 (human) (UniProt P68400)
HIPK1 (human) = HIPK1 (human) (UniProt Q86Z02)
DYRK1A (human) = DYRK1A (human) (UniProt Q13627)
NUAK1 (human) = NUAK1 (human) (UniProt O60285)
MAP3K9 (human) = MAP3K9 (human) (UniProt P80192)
BTK (human) = BTK (human) (UniProt Q06187)
EPHB1 (human) = EPHB1 (human) (UniProt P54762)
ERBB4 (human) = ERBB4 (human) (UniProt Q15303)
NEK6 (human) = NEK6 (human) (UniProt Q9HC98)
MARK1 (human) = MARK1 (human) (UniProt Q9P0L2)
MAPK11 (human) = MAPK11 (human) (UniProt Q15759)
DAPK1 (human) = DAPK1 (human) (UniProt P53355)
CaMK1 (human) = CaMK1 (human) (UniProt Q14012)

Sequence of RPS6KA5 KD1 KD2 (human) (O75582 whole entry, looked up): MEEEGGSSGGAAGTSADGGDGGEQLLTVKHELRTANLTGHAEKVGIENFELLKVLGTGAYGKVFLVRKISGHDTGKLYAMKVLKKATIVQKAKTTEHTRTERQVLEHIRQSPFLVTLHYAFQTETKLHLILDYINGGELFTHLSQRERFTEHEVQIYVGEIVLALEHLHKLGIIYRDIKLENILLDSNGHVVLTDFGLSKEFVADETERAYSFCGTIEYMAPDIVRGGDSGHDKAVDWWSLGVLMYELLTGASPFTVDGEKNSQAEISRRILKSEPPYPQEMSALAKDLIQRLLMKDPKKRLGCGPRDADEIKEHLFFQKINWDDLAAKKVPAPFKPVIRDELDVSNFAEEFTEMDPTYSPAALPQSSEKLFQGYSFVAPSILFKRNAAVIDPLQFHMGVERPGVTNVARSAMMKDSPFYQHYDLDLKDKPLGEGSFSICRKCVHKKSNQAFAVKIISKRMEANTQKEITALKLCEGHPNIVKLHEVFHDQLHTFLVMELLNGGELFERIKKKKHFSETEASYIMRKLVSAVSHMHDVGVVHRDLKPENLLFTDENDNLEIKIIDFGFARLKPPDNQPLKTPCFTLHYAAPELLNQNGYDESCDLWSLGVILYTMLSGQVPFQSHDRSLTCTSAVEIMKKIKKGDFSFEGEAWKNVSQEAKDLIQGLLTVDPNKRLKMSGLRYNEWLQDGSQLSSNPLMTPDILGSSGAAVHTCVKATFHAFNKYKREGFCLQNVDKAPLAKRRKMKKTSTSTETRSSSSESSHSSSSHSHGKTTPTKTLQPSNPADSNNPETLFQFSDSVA
Sequence of PAK6 (human) (Q9NQU5 whole entry, looked up): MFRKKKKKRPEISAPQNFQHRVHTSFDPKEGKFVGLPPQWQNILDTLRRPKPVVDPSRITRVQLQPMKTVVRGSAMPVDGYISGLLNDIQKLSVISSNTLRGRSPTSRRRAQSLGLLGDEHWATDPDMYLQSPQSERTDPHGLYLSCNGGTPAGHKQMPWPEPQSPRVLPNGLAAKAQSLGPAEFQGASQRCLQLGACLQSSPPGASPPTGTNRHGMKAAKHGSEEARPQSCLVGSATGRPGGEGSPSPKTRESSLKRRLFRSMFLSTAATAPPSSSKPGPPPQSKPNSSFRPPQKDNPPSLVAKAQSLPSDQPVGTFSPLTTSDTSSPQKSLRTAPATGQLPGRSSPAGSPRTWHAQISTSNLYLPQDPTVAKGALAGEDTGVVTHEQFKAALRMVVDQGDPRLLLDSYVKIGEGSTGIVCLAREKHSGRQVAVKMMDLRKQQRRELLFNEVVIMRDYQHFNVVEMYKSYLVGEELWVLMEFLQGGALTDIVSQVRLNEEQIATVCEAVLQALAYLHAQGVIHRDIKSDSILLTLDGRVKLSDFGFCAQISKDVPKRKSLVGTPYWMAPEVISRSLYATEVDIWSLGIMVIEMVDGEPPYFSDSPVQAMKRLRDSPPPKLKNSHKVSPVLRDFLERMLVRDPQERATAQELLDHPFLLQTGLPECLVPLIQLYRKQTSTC

Oc1ccc2ccccc2c1SSc1c(O)ccc2ccccc12
residual activity (ROCK2 (rat); compound 1.0 µM): 95% | residual activity (ROCK2 (rat); compound 5.0 µM): 87% | residual activity (ROCK2 (rat); compound 10.0 µM): 78% | residual activity (DYRK3 (human); compound 1.0 µM): 54% | residual activity (DYRK3 (human); compound 5.0 µM): 33% | residual activity (DYRK3 (human); compound 10.0 µM): 74% | residual activity (PRKCZ (human); compound 1.0 µM): 44% | residual activity (PRKCZ (human); compound 5.0 µM): 11% | residual activity (PRKCZ (human); compound 10.0 µM): 39% | residual activity (RPS6KA5 KD1 KD2 (human); compound 1.0 µM): 79% | residual activity (RPS6KA5 KD1 KD2 (human); compound 5.0 µM): 65% | residual activity (RPS6KA5 KD1 KD2 (human); compound 10.0 µM): 101% | residual activity (PAK6 (human); compound 1.0 µM): 86% | residual activity (PAK6 (human); compound 5.0 µM): 45% | residual activity (PAK6 (human); compound 10.0 µM): 101% | residual activity (HIPK3 (human); compound 1.0 µM): 37% | residual activity (HIPK3 (human); compound 5.0 µM): 33% | residual activity (TAOK1 (human); compound 1.0 µM): 103% | residual activity (TAOK1 (human); compound 5.0 µM): 102% | residual activity (PAK4 (human); compound 1.0 µM): 119% | residual activity (PAK4 (human); compound 5.0 µM): 45% | residual activity (PAK4 (human); compound 10.0 µM): 98% | residual activity (DYRK2 (human); compound 1.0 µM): 68% | residual activity (DYRK2 (human); compound 5.0 µM): 45% | residual activity (DYRK2 (human); compound 10.0 µM): 64% | residual activity ([1]; compound 1.0 µM): 87% | residual activity ([1]; compound 5.0 µM): 62% | residual activity ([1]; compound 10.0 µM): 85% | residual activity (EPHA2 (human); compound 1.0 µM): 91% | residual activity (EPHA2 (human); compound 5.0 µM): 75% | residual activity (EPHA2 (human); compound 10.0 µM): 97% | residual activity (LCK (mouse); compound 1.0 µM): 99% | residual activity (LCK (mouse); compound 5.0 µM): 99% | residual activity (LCK (mouse); compound 10.0 µM): 90% | residual activity (MST4 (human); compound 1.0 µM): 6% | residual activity (MST4 (human); compound 5.0 µM): 8% | residual activity (MST4 (human); compound 10.0 µM): 53% | residual activity (MAP2K6 (human); compound 1.0 µM): 93% | residual activity (MAP2K6 (human); compound 5.0 µM): 70% | residual activity (IKBKE (human); compound 1.0 µM): 7% | residual activity (IKBKE (human); compound 5.0 µM): 4% | residual activity (IKBKE (human); compound 10.0 µM): 70% | residual activity (MAPKAPK5 (human); compound 1.0 µM): 86% | residual activity (MAPKAPK5 (human); compound 5.0 µM): 46% | residual activity (MAPKAPK5 (human); compound 10.0 µM): 102% | residual activity (MAPK14 (human); compound 1.0 µM): 80% | residual activity (MAPK14 (human); compound 5.0 µM): 68% | residual activity (MAPK14 (human); compound 10.0 µM): 83% | residual activity (PAK7 (human); compound 1.0 µM): 99% | residual activity (PAK7 (human); compound 5.0 µM): 49% | residual activity (PAK7 (human); compound 10.0 µM): 121% | residual activity (EEF2K (human); compound 1.0 µM): 83% | residual activity (EEF2K (human); compound 5.0 µM): 60% | residual activity (EEF2K (human); compound 10.0 µM): 89% | residual activity (MAPK13 (human); compound 1.0 µM): 102% | residual activity (MAPK13 (human); compound 5.0 µM): 102% | residual activity (MAPK13 (human); compound 10.0 µM): 104% | residual activity (MARK3 (human); compound 1.0 µM): 81% | residual activity (MARK3 (human); compound 5.0 µM): 63% | residual activity (MARK3 (human); compound 10.0 µM): 69% | residual activity (HIPK2 (human); compound 1.0 µM): 24% | residual activity (HIPK2 (human); compound 5.0 µM): 15% | residual activity (HIPK2 (human); compound 10.0 µM): 73% | residual activity (EPHB3 (human); compound 1.0 µM): 86% | residual activity (EPHB3 (human); compound 5.0 µM): 69% | residual activity (EPHB3 (human); compound 10.0 µM): 26% | residual activity (CSNK2A1 (human); compound 1.0 µM): 104% | residual activity (CSNK2A1 (human); compound 5.0 µM): 97% | residual activity (CSNK2A1 (human); compound 10.0 µM): 127% | residual activity (HIPK1 (human); compound 1.0 µM): 52% | residual activity (HIPK1 (human); compound 5.0 µM): 48% | residual activity (DYRK1A (human); compound 1.0 µM): 47% | residual activity (DYRK1A (human); compound 5.0 µM): 19% | residual activity (DYRK1A (human); compound 10.0 µM): 83% | residual activity (NUAK1 (human); compound 1.0 µM): 11% | residual activity (NUAK1 (human); compound 5.0 µM): 6% | residual activity (MAP3K9 (human); compound 1.0 µM): 16% | residual activity (MAP3K9 (human); compound 5.0 µM): 4% | residual activity (BTK (human); compound 1.0 µM): 28% | residual activity (BTK (human); compound 5.0 µM): 19% | residual activity (BTK (human); compound 10.0 µM): 27% | residual activity (EPHB1 (human); compound 1.0 µM): 118% | residual activity (EPHB1 (human); compound 5.0 µM): 102% | residual activity (ERBB4 (human); compound 1.0 µM): 62% | residual activity (ERBB4 (human); compound 5.0 µM): 49% | residual activity (NEK6 (human); compound 1.0 µM): 34% | residual activity (NEK6 (human); compound 5.0 µM): 11% | residual activity (NEK6 (human); compound 10.0 µM): 65% | residual activity (MARK1 (human); compound 1.0 µM): 65% | residual activity (MARK1 (human); compound 5.0 µM): 38% | residual activity (MAPK11 (human); compound 1.0 µM): 114% | residual activity (MAPK11 (human); compound 5.0 µM): 112% | residual activity (MAPK11 (human); compound 10.0 µM): 117% | residual activity (DAPK1 (human); compound 1.0 µM): 101% | residual activity (DAPK1 (human); compound 5.0 µM): 83% | residual activity (CaMK1 (human); compound 1.0 µM): 6% | residual activity (CaMK1 (human); compound 5.0 µM): 3% | residual activity (CaMK1 (human); compound 10.0 µM): 7%
